Here are results for three substances from patent US7727950B2, “Methods and reagents for assaying protein kinase activity” (The University of Dundee, priority 2002, dated 2010).

Assay [1] has as its system peptide LpSFAEPGC conjugated to bovine serum albumin. As to the kind of experiment: Immunoblot of phospho-specific antibody with peptide competition (FIG. 1). The conditions noted are these: competition studies. Type of assay: binding. On the procedure: Aliquots (10 ng or 100 ng) of the peptide LpSFAEPGC (SEQ ID NO: 17) conjugated to bovine serum albumin were spotted on to a nitrocellulose membrane and immunoblotted with the phospho-specific antibody raised against the phospho-peptide immunogen in the presence or absence of the peptides shown on the right. The prefix “p” before S denotes the serine-phosphorylated form of the peptide.
Antibodies that recognise the common seven residue phosphorylated motif (LpSFAEPG) (SEQ ID NO:7) contained within each of the three generic peptide substrates described under results, were raised against the peptide LpSFAEPGC (SEQ ID NO:17) (where pS represents phosphoserine). The C-terminal cysteine residue was added to enable coupling to keyhole limpet haemocyanin. The peptide-protein conjugate was injected into sheep at Diagnostic Scotland (Carluke, U.K.) and the anti-sera purified on protein G-Sepharose (Amersham Pharmacia Biotech) by Dr J. Leitch in this Unit. Antibodies were used at a concentration of 2 μg/ml for immunoblotting and 10-20 μg/ml for detection of phosphorylated peptides in the modified ELISA format. Rabbit anti-sheep antibodies conjugated to peroxidase were obtained from Pierce (Tattenhall, Cheshire, UK) and used at 1/10,000 dilution. […]
(In general: A western blot detects proteins with antibodies after separation by electrophoresis.)

Another assay concerns the target T1, CHK2 (Homo sapiens, UniProt O96017).
T1 construct: an additional His-tag at the extreme C-terminus, to aid purification of the full-length product; GST; His-tag (C); made in house; host or cells: E. coli
As to the kind of experiment: Kinetic parameters for peptide phosphorylation, radioactive filter-binding assay. Type of assay: biochemical. The settings on record: Standard Substrate = KKKVSRSGLYRSPSMPENLNRPR
The source says: (§1) Apart from the AMP-activated protein kinase (AMPK, a gift from Drs S. Hawley and D. G. Hardie), cGMP-dependent protein kinase (PKG, a generous gift from Drs Susan Lohmann and Ulrich Walter, University of Wurzburg, Germany) and the catalytic subunit of cyclic AMP-dependent protein kinase (PKA, a gift from Dr C. Smythe), which were isolated from rat liver, bovine lung and bovine heart, respectively, all other protein kinases were expressed as either GST-fusion or His-tagged proteins (by a person, a person, Dr A. Paterson or a person, in this Division). The expressed proteins all corresponded to the human sequences apart from the rat Rho-dependent protein kinase (ROCK-II) and rat mitogen-activated protein kinase (MAPK) activated kinase-1a (MAPKAP-K1a, also called RSK). […]
(§2) All protein kinase assays were linear with respect to time. […] All papers were subsequently washed a further three times in phosphoric acid, once in acetone, then dried and counted for radioactivity. […] The plates were then washed six times (five min per wash) in PBS, 0.1% Tween 20 and binding of the phospho-specific antibody detected by incubating the plates with peroxidase-conjugated anti-sheep antibodies (Pierce). […] Signals were quantitated on LAS-1000IR software (FujiFilm). […]

Another assay deals with T2, CHK1 (Homo sapiens, UniProt O14757).
T2 construct: made in house; host or cells: Sf21 insect cells
T2 sequence (O14757 1-476): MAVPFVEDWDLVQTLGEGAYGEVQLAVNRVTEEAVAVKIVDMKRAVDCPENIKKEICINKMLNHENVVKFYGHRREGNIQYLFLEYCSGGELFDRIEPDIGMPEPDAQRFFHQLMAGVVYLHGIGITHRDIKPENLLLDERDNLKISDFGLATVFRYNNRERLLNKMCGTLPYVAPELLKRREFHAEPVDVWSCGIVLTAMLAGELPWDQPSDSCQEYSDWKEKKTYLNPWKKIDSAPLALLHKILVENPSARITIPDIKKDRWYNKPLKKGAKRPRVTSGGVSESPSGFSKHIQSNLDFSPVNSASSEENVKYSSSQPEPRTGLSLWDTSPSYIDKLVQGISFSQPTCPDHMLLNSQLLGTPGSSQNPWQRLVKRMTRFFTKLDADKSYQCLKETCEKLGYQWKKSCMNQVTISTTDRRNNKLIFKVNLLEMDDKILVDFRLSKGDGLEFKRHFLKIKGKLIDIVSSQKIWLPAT
The assay is described as above. The assay is classed as biochemical. The settings on record: Standard Substrate = KKKVSRSGLYRSPSMPENLNRPR
From the text: as §1, with “RSK). GST-fusion proteins were purified on GSH-agarose (Amersham Pharmacia Biotech, Amersham, UK) and His-tagged proteins on Ni-NTA agarose (Qiagen) essentially according to the manufacturer's instructions. All the protein kinases used in this study are available from Upstate Biotechnology Inc. (Lake Placid, N.Y., USA), apart from the α-isoform of calmodulin-dependent protein kinase II (CaMKII), MAPKAP-K3 and PKG.” for “RSK).”
as §2

In a further assay the target is T3, PKCα (Homo sapiens, UniProt P17252).
T3 construct: purchased Calbiochem Novachem Corp; host or cells: Sf21 insect cells
The description is as above. Type of assay: biochemical. The conditions noted are these: Standard Substrate = histone H1.
From the text: as §1, with “RSK). GST-fusion proteins were purified on GSH-agarose (Amersham Pharmacia Biotech, Amersham, UK) and His-tagged proteins on Ni-NTA agarose (Qiagen) essentially according to the manufacturer's instructions. All the protein kinases used in this study are available from Upstate Biotechnology Inc. (Lake Placid, N.Y., USA), apart from the α-isoform of calmodulin-dependent protein kinase II (CaMKII), MAPKAP-K3 and PKG.” for “RSK).”
as §2

The next assay has as its target T4, ROCKII (Rattus norvegicus, UniProt Q62868).
T4 construct: rat ROCKII[1-543]; made in house; host or cells: Sf21 insect cells
The assay is described as above. The conditions noted are these: Standard Substrate = KEAKEKRQEQIAKRRRLSSLRASTSKSGGSQK
Type of assay: biochemical.
From the text: as §1, with “RSK). GST-fusion proteins were purified on GSH-agarose (Amersham Pharmacia Biotech, Amersham, UK) and His-tagged proteins on Ni-NTA agarose (Qiagen) essentially according to the manufacturer's instructions. All the protein kinases used in this study are available from Upstate Biotechnology Inc. (Lake Placid, N.Y., USA), apart from the α-isoform of calmodulin-dependent protein kinase II (CaMKII), MAPKAP-K3 and PKG.” for “RSK).”
as §2

Square brackets hold non-standard residues; d marks the D form. Ends that are not written are not given here. pS = N[C@@H](COP(=O)(O)O)C(=O)O

T4 sequence (Q62868 1-543): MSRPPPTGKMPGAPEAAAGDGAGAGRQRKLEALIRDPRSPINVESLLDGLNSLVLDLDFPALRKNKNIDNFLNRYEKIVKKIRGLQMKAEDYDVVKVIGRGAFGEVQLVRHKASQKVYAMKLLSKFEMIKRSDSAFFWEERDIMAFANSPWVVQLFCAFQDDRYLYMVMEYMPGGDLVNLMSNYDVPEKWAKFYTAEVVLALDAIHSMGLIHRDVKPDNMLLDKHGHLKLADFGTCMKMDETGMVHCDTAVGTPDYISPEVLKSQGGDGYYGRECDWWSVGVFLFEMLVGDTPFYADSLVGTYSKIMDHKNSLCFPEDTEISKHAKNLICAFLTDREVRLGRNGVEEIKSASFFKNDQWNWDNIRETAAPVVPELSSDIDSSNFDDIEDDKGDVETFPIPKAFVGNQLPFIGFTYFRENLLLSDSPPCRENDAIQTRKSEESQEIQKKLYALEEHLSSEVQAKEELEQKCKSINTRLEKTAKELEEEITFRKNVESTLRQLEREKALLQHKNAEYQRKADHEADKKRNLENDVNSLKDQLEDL
T1 sequence (O96017 whole entry): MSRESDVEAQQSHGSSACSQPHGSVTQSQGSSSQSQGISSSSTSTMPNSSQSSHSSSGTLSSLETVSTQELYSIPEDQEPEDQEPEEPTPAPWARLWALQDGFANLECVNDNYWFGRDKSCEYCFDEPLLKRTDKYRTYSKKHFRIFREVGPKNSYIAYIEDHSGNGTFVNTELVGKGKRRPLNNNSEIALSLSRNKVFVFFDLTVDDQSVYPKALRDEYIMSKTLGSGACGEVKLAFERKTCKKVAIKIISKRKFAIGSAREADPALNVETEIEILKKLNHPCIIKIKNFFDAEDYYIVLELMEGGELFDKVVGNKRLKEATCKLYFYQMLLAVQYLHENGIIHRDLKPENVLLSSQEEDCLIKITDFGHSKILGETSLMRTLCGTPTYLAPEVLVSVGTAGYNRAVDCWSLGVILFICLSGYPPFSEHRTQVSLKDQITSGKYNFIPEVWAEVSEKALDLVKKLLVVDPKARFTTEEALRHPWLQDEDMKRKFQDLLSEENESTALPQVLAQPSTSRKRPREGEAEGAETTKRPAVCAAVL

Consider “LpSFAEPG (L[pS]FAEPG) [seven residue phospho-peptide antigen, pS is phosphoserine]”, for which the “neutralisation of the phosphopeptide antibody by pre-incubation with peptide” value in assay [1] is on record as “neutralised”.

RARTLSFAEPG: the Km at CHK2 is > 300 µM; on CHK1 it was 5 µM.

In the case of RRRLSFAEPG, the results for the Km on PKCα and at ROCKII were > 500 µM and > 100 µM, respectively.

One may read the Km as the concentration of substrate that gives half-maximal velocity.
